Assay results published in patent US9427408B2, “Silica-matrix forming compositions, materials formed therefrom, and methods of using the same” (priority 2011, dated 2016).

What was measured:
HFF cells = type: cell-based; details: 0.19 and 0.38 M EG, 48 h incubation
Description: (§1) Human foreskin fibroblasts (HFF), and mouse embryonic fibroblasts (MEF) were obtained from the American Type Cell Collection (Manasas, Va.). HFF and MEF cells were cultured in DMEM basal media supplemented with 15% fetal bovine serum (FBS), and 1% penicillin/streptomycin. Cells were incubated in a 5% CO2 atmosphere at 37° C. until they reached 80-90% confluence. Cells were then washed with phosphate buffer saline (PBS) and trypsinized with 0.25% Trypsin-EDTA for 5 min at 37° C. For cytotoxicity measurements and encapsulation experiments, cells were centrifuged at 800 rpm for 5 min. The supernatant was removed and the pelleted cells were suspended in their own growth media at a concentration of about 500,000 cells/ml.
(§2) Membrane integrity of the encapsulated cells in silica and SPEG gels was measured using a live-dead fluorescence assay containing Hoechst (H) and Propidium Iodide (PI) fluorescent dyes. A Nikon Eclipse T200 microscope (Nikon Instruments Inc., Melville, N.Y.) equipped with 10×, and 20× objectives were used to collect the bright field and fluorescent images.
(§3) MA of the encapsulated cells was measured with alamar blue (AB) fluorescence. For fluorescence measurements a SpectraMAX Gemini microplate reader (Molecular Devices Inc, Sunnyvale, Calif.) was used. The samples were excited at 540 nm and their emission was measured at 590 nm. LDH assay was performed 24 h after encapsulation of the cells. The assay was performed using a commercially available kit (Roche Applied Science, Indianapolis, Ind.). The levels of extracellular LDH activity were determined using a UV-vis SpectraMAX microplate reader (Molecular Devices, Sunnyvale, Calif.) by absorbance at 492 nm.
(§4) During the encapsulation process, mammalian cells were exposed to individual and aggregated SNPs in the surrounding solutions as gel formation proceeds. SNPs can be mildly cytotoxic. The toxicity of the encapsulation process was analyzed by incubating mammalian cells in 0.01 and 0.03 M SNP solutions. These were the concentrations used in the gels. After 24 h of incubation in the presence of SNPs, the cell membrane integrity and MA was measured.
(§5) Another factor for cytotoxicity is the formation of cytotoxic by-products such as EG during the hydrolysis reaction. HFF and MEF cells were incubated with 0.19 and 0.38 M EG to test for cytotoxicity. The concentrations of EG used in these experiments were based on the stoichiometric reaction of 10% (v/v) THEOS assuming a complete reaction. […] FIG. 6 illustrates cytotoxicity of SNPs and EG on: (A) HFF, (B) MEF.

MEF cells = type: cell-based; details: 0.19 and 0.38 M EG, 48 h incubation
Description: as §1, §2, §3, §4, §5

## OCCO [EG, ethylene glycol]
HFF cells
  cell membrane damage: did not cause any cell membrane damage
  effect on MA of the cells: nor had any effects on the MA
MEF cells
  cell membrane damage: did not cause any cell membrane damage
  effect on MA of the cells: nor had any effects on the MA
